For data set [1], the target named is T1, Amine oxidase [flavin-containing] A (Homo sapiens, UniProt P21397).
T1 sequence (P21397 whole entry): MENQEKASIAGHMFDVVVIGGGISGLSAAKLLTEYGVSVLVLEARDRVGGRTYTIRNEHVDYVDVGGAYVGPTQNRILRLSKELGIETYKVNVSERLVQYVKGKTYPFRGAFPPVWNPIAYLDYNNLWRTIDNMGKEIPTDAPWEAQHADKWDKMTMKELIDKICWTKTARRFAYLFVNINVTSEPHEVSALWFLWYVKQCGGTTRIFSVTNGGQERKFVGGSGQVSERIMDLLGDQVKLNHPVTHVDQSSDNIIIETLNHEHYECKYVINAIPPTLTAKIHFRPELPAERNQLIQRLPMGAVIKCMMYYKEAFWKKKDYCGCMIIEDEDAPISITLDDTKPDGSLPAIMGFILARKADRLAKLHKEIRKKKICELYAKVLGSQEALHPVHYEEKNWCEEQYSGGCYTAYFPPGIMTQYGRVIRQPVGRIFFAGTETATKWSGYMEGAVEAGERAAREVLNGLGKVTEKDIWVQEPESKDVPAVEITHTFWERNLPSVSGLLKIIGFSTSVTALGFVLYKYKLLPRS
The data set can be described thus: Inhibition of recombinant human MAOA using kynuramine as substrate assessed as decrease in formation of 4-hydroxyquinoline incubated for 20 mins by fluorescence assay.

Data set [2] deals with T2, Amine oxidase [flavin-containing] B (Homo sapiens, UniProt P27338).
T2 sequence (P27338 whole entry): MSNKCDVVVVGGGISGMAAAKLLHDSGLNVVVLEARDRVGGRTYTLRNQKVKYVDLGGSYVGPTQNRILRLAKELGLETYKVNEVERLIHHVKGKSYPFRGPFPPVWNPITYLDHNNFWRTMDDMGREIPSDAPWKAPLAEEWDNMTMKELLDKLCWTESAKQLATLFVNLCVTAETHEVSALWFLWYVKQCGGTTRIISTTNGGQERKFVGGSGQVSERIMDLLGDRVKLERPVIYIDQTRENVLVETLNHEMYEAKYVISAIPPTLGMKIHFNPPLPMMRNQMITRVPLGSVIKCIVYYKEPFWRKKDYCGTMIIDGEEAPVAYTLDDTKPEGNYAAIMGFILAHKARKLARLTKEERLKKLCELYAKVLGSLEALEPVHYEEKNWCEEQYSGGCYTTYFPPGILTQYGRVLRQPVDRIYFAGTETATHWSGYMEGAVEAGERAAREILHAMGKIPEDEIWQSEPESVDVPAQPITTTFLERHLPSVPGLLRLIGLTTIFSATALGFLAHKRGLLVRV
Kind of data set: Inhibition of recombinant human MAOB using kynuramine as substrate assessed as decrease in formation of 4-hydroxyquinoline incubated for 20 mins by fluorescence assay.

The species named for data set [3] is Homo sapiens. Kind of data set: Selectivity ratio of IC50 for recombinant human MAOB to IC50 for recombinant human MAOA.
For data set [4], the target named is T3, Caspase-3 (Homo sapiens, UniProt P42574).
T3 sequence (P42574 whole entry): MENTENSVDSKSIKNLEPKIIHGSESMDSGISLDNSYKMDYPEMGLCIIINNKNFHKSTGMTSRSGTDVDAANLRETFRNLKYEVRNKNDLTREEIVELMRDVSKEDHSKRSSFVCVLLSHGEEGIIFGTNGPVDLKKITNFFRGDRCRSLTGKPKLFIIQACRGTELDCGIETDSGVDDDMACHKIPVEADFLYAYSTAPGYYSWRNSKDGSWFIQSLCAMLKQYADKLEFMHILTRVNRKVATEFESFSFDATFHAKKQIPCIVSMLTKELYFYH
Kind of data set: Inhibition of recombinant human caspase-3 using Ac-DEVD-AMC as substrate preincubated for 10 mins followed by substrate addition measured after 60 mins by fluorometric assay.

Data set [5] addresses T1, Amine oxidase [flavin-containing] A. Kind of data set: Time-dependent inhibition of recombinant human MAOA using kynuramine as substrate assessed as decrease in formation of 4-hydroxyquinoline at 2 times IC50 preincubated for 15 to 60 mins followed by substrate addition measured after 15 mins by fluorescence assay. The note with it: 0.25 h.

Where a SMILES comes first, the peptide text is derived from it. The star is where a group is joined. Cbz = O=C(OCc1ccccc1)*; CH2F = FC* Bounds are passed on as bounds.

Consider `CN(Cc1cccc(F)c1)S(=O)(=O)c1ccc2c(c1)C(=O)C(=O)N2`, for which, in data set [1], the IC50 turned out to be 22.8 µM and the inhibitory constant (Ki) turned out to be 6 µM. Moreover, in data set [2], the 50% inhibitory concentration (IC50) was 8.32 µM and the Ki turned out to be 3.58 µM.
For the molecule `CN(Cc1ccccc1F)S(=O)(=O)c1ccc2c(c1)C(=O)C(=O)N2`, in data set [1], the IC50 is 21.6 µM and the inhibition constant Ki is 5.7 µM. Besides, the IC50 in data set [2] is above 100 µM.
Turning to `CN(Cc1ccc(F)cc1)S(=O)(=O)c1ccc2c(c1)C(=O)C(=O)N2`, in data set [1], the IC50 was 8.26 µM and the Ki was determined as 2.18 µM. Moreover, in data set [2], the half-inhibitory concentration (IC50) turned out to be 5.96 µM and the inhibitory constant (Ki) was 2.57 µM.
As to `C#CCN1C(=O)C(=O)c2ccccc21`, the IC50 is 30.9 µM in data set [1], 35.2 µM in data set [2] and above 100 µM in data set [4]. Further, the Ki in data set [1] was 8.14 µM; in data set [2] it was 15.1 µM. Moreover, in data set [3], the Ratio IC50 amounted to 2.12.
For `C#CCN1C(=O)C(=O)c2cc(S(=O)(=O)N(C)Cc3cccc(F)c3)ccc21`, in data set [1], the IC50 stood at 10.7 µM and the inhibitory constant (Ki) came out at 2.81 µM. In addition, in data set [2], the IC50 is 70.6 µM and the inhibition constant (Ki) came to 30.4 µM.
The like results for `C#CCN1C(=O)C(=O)c2cc(S(=O)(=O)N(C)Cc3ccccc3F)ccc21` were, in that order, 9.43 µM, 2.48 µM, 128 µM and 55.2 µM.
In the case of `COC(=O)C[C@H](NC(=O)[C@H](C)NC(=O)[C@@H](NC(=O)OCc1ccccc1)C(C)C)C(=O)CF` (Cbz-Val-Ala-Asp(OMe)-CH2F), the half-maximal inhibitory concentration (IC50) in data set [4] was 40 µM.
On to `C#CCN(C)CCCOc1ccc(Cl)cc1Cl` [CLORGILINE], for which the TDI entry in data set [5] is on record as “Active”. For the same molecule, the IC50 in data set [4] is above 100 µM.
On to `C#CCN1C(=O)C(=O)c2cc(S(=O)(=O)N(C)Cc3ccc(F)cc3)ccc21`, for which the IC50 was 4.31 µM in data set [1], above 100 µM in data set [2] and above 100 µM in data set [4]. In data set [1], the inhibition constant (Ki) came out at 1.14 µM. The Ratio IC50 in data set [3] is above 23.9.
Consider `C#CCN(C)[C@H](C)Cc1ccccc1` [SELEGILINE], for which, in data set [4], the 50% inhibitory concentration (IC50) was above 100 µM.
Still for that read-out and setting: the same measure for `O=C1Nc2ccccc2C1=O` [ISATIN]: above 100 µM.

For the origin of these results see ChEMBL document CHEMBL3861946 (Medchemcomm, 2016).
